Experimental data taken from patent publication US20110251158A1, “FULLERENE THERAPIES FOR INFLAMMATION AND INHIBITION OF BUILD-UP OF ARTERIAL PLAQUE” (Luna Innovations Incorporated, priority 2008, published 2011).

System: Peripheral blood basophils (PBB)
Test: Anti-IgE-induced histamine release (degranulation) from PBB
Type: cell-based, human
Description: PBB were obtained from two sources: donors recruited under an IRB-approved protocol after informed consent or from leukopheresis packs obtained from the Johns Hopkins Hemapheresis Center. PBB were purified to ≧99% purity as described in Vonakis, B. M., Gibbons S Jr, Sora, R., Langdon, J. M., and MacDonald, S. M. J. Allergy Clin. Immunol. 108, 822-831 (2001), and Miura, K., Saini, S. S., Gauvreau, G., and MacGlashan, D. W., Jr. J. Immunol. 167, 2282-2291 (2001). Purified PBB were incubated overnight (20 hours) with a fullerene derivative (5 μg/ml) or vehicle control and a minimal (non-stimulatory) concentration of IL-3 (2 pg/ml) to prevent apoptosis. The next day, cells were washed and aliquoted for the histamine release assay by treatment with 0.1 mg/ml of goat polyclonal anti-IgE, buffer alone (spontaneous release) or perchloric acid (total histamine determination). Histamine was quantified in cell free supernatants using automated fluorimetry in duplicate. In a second set of experiments the two fullerene derivatives (at 5 μg/ml) were incubated with PBB for 20 hours, washed cells stimulated with 15 ng/ml anti-IgE for 18 hours in duplicate and supernatants collected for quantification of IL-13 by in-house ELISA. The optimal doses of anti-IgE are chosen for activation of PBB.

C70-tetraglycolic acid [TGA]
Mean % Inhibition of Histamine Release (5 μg/ml FD vs vehicle control, listed as C70-TGA): 15.8%
FD + anti-IgE (mean ± SEM), histamine release (5 μg/ml FD, 20 hours, anti-IgE): 39.4 ± 2.3
maximal inhibition of anti-IgE-induced histamine release (50 µg/mL dose, mean±SEM, n=2-3): 37.8±16.25%
IC50 (degranulation) (PBB, maximum inhibition set to 100%): 9.9 µg/mL
